Test results taken from patent US20150182597A1, “COMPOSITIONS COMPRISING HYALURONIC ACID AND DERMATAN SULPHATE FOR THE TREATMENT OF BEING OVERWEIGHT AND OBESITY” (BIOIBERICA, S.A., priority 2012, published 2015).

Columns and labels:
[1] = tested on: mouse embryonic fibroblasts (MEFs); assay: Spontaneous adipogenesis of MEFs in growth medium: lipid accumulation under phase contrast microscopy; type: cell-based; conditions: day 8 of culture in growth medium, HA 80 μg/mL, DS 20 μg/mL, HA8O+DS20 100 μg/mL
Protocol: MEFs obtained from embryos of 13 days gestational age were cultured in monolayer in growth medium consisting of […] (Invitrogen, Carlsbad, Calif., USA) basal medium supplemented with […] supplement (7.5%), foetal bovine serum (7.5%) and antibiotics, in 12-well culture plates of 1 mL capacity/well, following a previously described protocol (J. B. Hansen et al., Proc. Natl. Acad. Sci. USA 101, 4112-4117 (2004)). Two days after reaching confluence, which is considered day 0 of culture, the cells were exposed to: carrier (water); hyaluronic acid (HA) at a final concentration (f.c.) of 80 μg/mL; dermatan sulphate (DS) at an f.c. of 20 μg/mL; chondroitin sulphate (CS) at an f.c. of 20 μg/mL; or composition of the present invention HA8O+DS20 at an f.c. of 100 μg/mL, containing 80 μg of HA and 20 μg of DS per mL. […] The mRNA levels of the genes related to adipocyte differentiation PPARgamma, C/EBPalpha and fatty acid synthase (FAS) were determined by real-time PCR from the total RNA extracted from the cells with Trizol reagent and reverse-transcribed with reverse transcriptase, and using the mRNA of beta-actin as an internal control. […] The statistical significance of differences with respect to treatment with the carrier was analyzed by means of Student's t-test. […]

resistin = assay: Resistin gene expression in MEF-derived adipocytes; type: cell-based, mouse; conditions: 8 days of MEF adipocyte differentiation in adipogenic medium; compositions at f.c. 20, 100, 200 μg/mL; HA 80, DS 20 μg/mL
Protocol: MEFs obtained from embryos of 13 days gestational age were cultured in monolayer in growth medium consisting of […] (Invitrogen, Carlsbad, Calif., USA) basal medium supplemented with […] supplement (7.5%), foetal bovine serum (7.5%) and antibiotics, in 12-well culture plates of 1 mL capacity/well, following a previously described protocol (J. B. Hansen et al., Proc. Natl. Acad. Sci. USA 101, 4112-4117 (2004)). […] The mRNA levels of the genes related to adipocyte differentiation PPARgamma, C/EBPalpha and fatty acid synthase (FAS) were determined by real-time PCR from the total RNA extracted from the cells with Trizol reagent and reverse-transcribed with reverse transcriptase, and using the mRNA of beta-actin as an internal control. […] The statistical significance of differences with respect to treatment with the carrier was analyzed by means of Student's t-test. […] The mRNA levels of selected genes were determined by real-time PCR, as described in Example 1. […] Expression levels of the resistin gene were determined by real-time PCR, as described in Example 1.

Row | Substance | clusters of cells spontaneously differentiated into adipocytes filled with fat droplets [1] | expression of resistin (resistin)
1 | dermatan sulphate [DS20] | presence of a number of clusters of cells spontaneously differentiated into adipocytes filled with fat droplets | not reproduced
2 | hyaluronic acid [HA80] | presence of a number of clusters of cells spontaneously differentiated into adipocytes filled with fat droplets | not reproduced
